Counter-ions that a name gives are not always drawn.
Columns and labels:
human patients = experiment: single, escalating dose human clinical trial (safety); type: in vivo; details: oral, 50, 100, 200 and 400 mg BID
dogs [1] = experiment: acute and seven-dose toxicity in dogs (capsules); details: dog, in vivo
Description: Therefore, these dogs were subsequently administered seven consecutive doses of 1000 mg/kg/day.

PDE4 = experiment: PDE inhibition, similar protocols: PDE4; type: biochemical
U937 cells = experiment: apoptosis induction of U937 cells (active caspase 3 immunofluorescence); type: cell-based; set-up: apoptosis as reflected by active caspase 3 (FIG. 8): dose or concentration left out as unconfirmed; details: for Percentage of apoptotic cells / Number of apoptotic cells: 24 hrs; for Number of apoptotic cells: active caspase 3, 500 cells scored
Description: U937 cells (from ATCC Rockville, Md.) were grown in RPMI media supplemented with 5% FCS, glutamine, antibiotic/antimycotic and sodium pyruvate. Total RNA was isolated from two U937 cultures, one treated with 5 nM TPA for 48 hours and one grown in normal media as listed above, using the Rouche High Pure RNA Isolation Kit (cat# 1 828 665) as per manufacturers protocol. cDNA was then synthesized from the total RNA using GibcoBRL SuperscriptII (Cat # 18064-022) reverse transcriptase as per manufacturers protocol. The resulting cDNA was used as a template for RT-PCR reactions using primer sets specific for PDE2 (forward: […], reverse: […]) or PDE5 (forward: […], reverse: […]). mRNA for PDE2 and 5 were both present in the untreated U937 cells. Upon treatment with TPA, the relative amounts of PDE2 mRNA increased 5 fold. Therefore, U937 cells treated with TPA and driven to differentiate into an activated macrophage like state have elevated levels of PDE2 mRNA (see FIG. 1).
The presence of PDE2 and PDE5 protein within U937 cells was confirmed by indirect immunofluorescence (IIF). U937 cells were cultured as above. Two U937 cultures, one grown in the presence of 5 nM TPA for 48 hours and one grown in normal media were processed. All cultures were collected by centrifugation (Shandon Cytospin, 2 minutes @ 600 rpm) onto poly-L lysine-coated slides and immediately fixed in fresh 3% paraformaldehyde buffered in PBS for 10 minutes. Adherent cultures were grown on coverslips and fixed as above. Cells were permeablized in 0.2% triton-100 for 2 minutes. Slides were blocked with blocking buffer (5% goat serum, 5% glycerol, 1% gelatin from cold water fish skin and 0.04% NaN3 in PBS) for 1 hour at room temperature.
Adherent cells were dislodged by treatment with trypsin EDTA for 5 minutes at 37° C. Cells were then processed for IIF as described above, except that an antibody specific for active caspase 3 was used (as per manufacturer's protocol) instead of antibodies to PDE2 or 5 (Promega Cat. #G7481). The anti-active caspase 3 antibody was diluted 1:200 in blocking buffer and processed according to the manufacturer's protocol. The resulting slides were observed under a fluorescent microscope and a digital images were obtained.
The level of apoptosis in U937 cells was quantified by scoring 500 consecutive cells for the presence of active caspase 3.
The cells were harvested and processed for IIF as described above using an antibody that specifically recognizes active caspase 3. […] Therefore, the inhibition of only PDE4 or PDE5 alone (i.e. without the inhibition of PDE2) is not sufficient to induce apoptosis in U937 cells.

rats [2] = experiment: acute toxicity study in rats; details: rat, in vivo
[3] = biological target: T1, GST-cGB-PDE5 fusion protein (cGMP binding sites of human PDE5A) (Homo sapiens, UniProt O76074); experiment: cGMP binding assay with GST-cGB-PDE5 fusion protein
T1 construct: made in house; host or cells: E. coli BL21 (DE3)
Text: RT-PCR method is used to obtain the cGB domain of PDE5 with forward and reverse primers designed from bovine PDE5A cDNA sequence (McAllister-Lucas L. M. et al, J. Biol. Chem. 268, 22863-22873, 1993) and the selection among PDE 1-10 families. 5′-3′, Inc. kits for total RNA followed by oligo (dT) column purification of mRNA are used with HT-29 cells. […] It is then cloned into pGEX-5X-3 glutathione-S-transferase (GST) fusion vector (Pharmacia Biotech )with tac promoter, and EcoR1 and XhoI cut sites. The fusion vector is then transfected into E. Coli BL21 (DE3) bacteria (Invitrogen). The transfected BL21 bacteria is grown to log phase, and then IPTG is added as an inducer. The induction is carried at 20° C. for 24 hrs. The bacteria are harvested and lysed. The soluble cell lysate is incubated with GSH conjugated Sepharose 4B (GSH-Sepharose 4B). The GST-cGB-PDE5 fusion protein can bind to the GSH-Sepharose beads, and the other proteins are washed off from beads with excessive cold PBS.
Then, the mixture is transferred to Brandel MB-24 cell harvester with GF/B as the filter membrane followed by 2 washes with 10 mL of cold 5 mM potassium buffer(pH 6.8). The membranes are then cut out and transferred to scintillation vials followed by the addition of 1 mL of H2O and 6 mL of Ready Safe™ liquid scintillation cocktail to each vial. The vials are counted on a Beckman LS 6500 scintillation counter.
The quenching by filter membrane or other debris are also calibrated.

PDE5 = biological target: T2, PDE5 (Homo sapiens, UniProt O76074); experiment: competitive binding (with cGMP) to PDE5
T2 construct: partially purified cGMP-specific PDE isolated from HT-29 cells; endogenous in cells; host or cells: HT-29

PDE1 = experiment: PDE inhibition, similar protocols: PDE1; type: biochemical
[4] = system: TNF-α secreted by TPA-induced U937 cells; experiment: TNF-α immunoassay on U937 cell culture media; type: cell-based
Description: One function of macrophages is to modulate the activity of other inflammatory cells through various cytokine molecules.
TNF-α levels in the cell culture media were determined by using the TNF-α Immunoassay from R&D Systems (Cat. # DTA50) according to the manufacturer's protocol.

rats [5] = experiment: 28-day study in rats; type: in vivo
Description: A 28-day study in rats was also carried out at 0, 50, 500 and 2000 mg/kg/day.

rats [6] = experiment: long-term (91-day) safety assessment study in rats; type: in vivo
Text: These changes were not associated with any gross clinical abnormality.

dogs [7] = experiment: 91-day oral study in dogs; type: in vivo
rats [8] = experiment: seven-day dose-range finding study in rats; type: in vivo; details: seven days
[9] = U937, TPA 5 nM, 16 hrs, then 1 uM
[10] = 28 days, 50, 500 and 2000 mg/kg/day

In the case of `CC1=C(CC(=O)NCc2ccccc2)c2cc(F)ccc2/C1=C\c1ccncc1` [Compound 38, (Z)-5-Fluoro-2-Methyl-(4-Pyridylidene)-3-(N-Benzyl) Indenylacetamide Hydrochloride], the side effects (human patients) is reported as “no significant side effects”, the signs of toxicity (dogs [1]; 1000 mg/kg) is reported as “no signs of toxicity” and the “signs of drug-related effects” value (dogs [1]; 1000 mg/kg/day) is reported as “At no time in either dosing phase were any obvious signs of drug-related effects observed”. The IC50 (PDE4) was 6 µM, the “Percentage of apoptotic cells” value (U937 cells; [9]) was 78% and the “Number of apoptotic cells” value (U937 cells; [9]) was 392/500. The “Percentage of apoptotic cells” value (U937 cells; U937, no TPA treatment, 1 uM) was 75%, the “Number of apoptotic cells” value (U937 cells; U937, no TPA treatment, 1 uM) was 375/500 and the “apoptosis as reflected by active caspase 3 (FIG. 8)” value (U937 cells; U937 cells treated with compound 38) was “undergoing apoptosis”. The induction of apoptosis (U937 cells; differentiated and non-differentiated U937 cell line) was “causes the induction of apoptosis”, the body weight gain (rats [2]; ip, 1000 mg/kg) was “reduced body weight gain” and the necropsy findings (rats [2]; ip, 1000 mg/kg) was “mesenteric adhesions seen in some animals”. The body weight gains (rats [2]; po, 2000 mg/kg) was “slightly reduced”, the “binding to the cGMP-binding site of PDE5” value [3] was “does not bind” and the “competitive (with cGMP) binding to PDE5” value (PDE5) was “does competitively (with cGMP) bind”. For the same molecule, the IC50 (PDE1) was 3 µM, the “level of TNF-α secreted (FIG. 12)” value [4] was “significantly reduced” and the “macroscopic tissue changes at necropsy” value (rats [5]; 28 days) was “No macroscopic tissue changes”. The liver weights (rats [5]; 28 days, 2000 mg/kg/day) was “statistically significant increase in liver weights”, the thyroid weights (rats [5]; 28 days, 2000 mg/kg/day) was “statistically significant increases in thyroid weights” and the “body weight changes, ophthalmoscopic examinations, hematological and blood chemistry values, urinalysis” value (rats [5]; [10]) was “unremarkable”. For the same molecule, the clinical observations (rats [5]; [10]) was “no abnormal clinical observations”, the “slight liver and thyroid weight increases” value (rats [5]; 28 days, lower doses) was “not statistically significant” and the “histopathological evaluation of tissues” value (rats [5]; 28 days, small number of animals at 2000 mg/kg/day, one female at 500 mg/kg/day) was “traces of follicular cell hypertrophy, increased numbers of mitotic figures (suggestive of possible cell proliferation) in the thyroid gland and mild centrilobular hypertrophy in the liver”. The “clinical biochemistry and hematology” value (rats [6]; 91 days) was “no changes in clinical biochemistry and hematology”, the “microscopic finding, follicular cells” value (rats [6]; 91 days, 500 mg/kg/day) was “follicular cell hypertrophy” and the “microscopic finding, kidneys” value (rats [6]; 91 days, 200 and 500 mg/kg/day) was “increase in accumulation of hyalin droplets in the kidneys”. For the same molecule, the “microscopic finding, liver” value (rats [6]; 91 days, 200 and 500 mg/kg/day) was “slight hepatocellular hypertrophy”, the organ weights (rats [6]; 91 days, males and females at 200 and 500 mg/kg/day) was “dose-related trend to increased liver and thyroid/parathyroid weights” and the toxicological effects (rats [6]; oral, 91 consecutive days, 50, 200 and 500 mg/kg/day) was “did not produce any major toxicological effects”. For the same molecule, the tolerability (dogs [7]; 91 days) was “well tolerated”, the feces observation (dogs [7]; 91 days, 150 and 300 mg/kg/day) was “Orange discoloration of the feces” and the body weights (dogs [7]; 91 days, highest dose group) was “Slightly lowered body weights”. For the same molecule, the liver weights (dogs [7]; 91 days, highest dose group) was “increased liver weights”, the “microscopic alterations (liver)” value (dogs [7]; 91 days, highest dose group) was “no microscopic alterations” and the “route of elimination (suggested by feces colour)” value (dogs [7]; 91 days, oral) was “most of Compound 38 was being eliminated via the feces”. The toxicological effects (dogs [7]; oral, 91 consecutive days, 50, 150 and 300 mg/kg/day) was “no toxicological effects”, the signs of toxicity (rats [8]; 50 mg/kg/day) was “no observable signs of toxicity” and the treatment-related effects (rats [8]; 500 mg/kg/day) was “increase in absolute and relative liver weights in female rats”. The treatment-related effects (rats [8]; 2000 mg/kg/day) was “labored breathing and/or abnormal respiratory sounds, decreased weights gains and food consumption in male rats, and increased liver weights in female rats” and the “hematology, blood chemistry, microscopic pathology” value (rats [8]; any dose level (50, 500, 2000 mg/kg/day)) was “No hematological or blood chemistry changes nor any microscopic pathology changes”.

Reference: US20030073740A1, “Methods for treatment of lupus erythematosus” (priority 2001, published 2003)
